Assay results taken from the NIST ThermoML archive (doi:10.1016/j.jct.2019.06.028).
Numbers after ± are expanded uncertainties.

Tests used:
[1] = xn = mol fraction of the nth substance listed; settings: 101 kPa, Liquid, Vibrating tube method
[2] = 101 kPa, Liquid, Vibrating tube method

SMILES: CC(N)=O [ethanamide] + O
- mass density ([1]; 278.15 K, x1 = 0.0045): 1001.13 ± 0.09 kg/m3
- mass density ([1]; 278.15 K, x1 = 0.00696): 1001.77 ± 0.09 kg/m3
- mass density ([1]; 278.15 K, x1 = 0.01255): 1003.21 ± 0.09 kg/m3
- mass density ([1]; 278.15 K, x1 = 0.0221): 1005.68 ± 0.09 kg/m3
- mass density ([1]; 278.15 K, x1 = 0.03704): 1009.47 ± 0.09 kg/m3
- mass density ([1]; 278.15 K, x1 = 0.04992): 1012.61 ± 0.09 kg/m3
- mass density ([1]; 278.15 K, x1 = 0.0607): 1015.11 ± 0.12 kg/m3
- mass density ([1]; 278.15 K, x1 = 0.07958): 1019.24 ± 0.12 kg/m3
- mass density ([1]; 278.15 K, x1 = 0.09463): 1022.32 ± 0.12 kg/m3
- mass density ([1]; 278.15 K, x1 = 0.1128): 1025.82 ± 0.26 kg/m3
- mass density ([1]; 278.15 K, x1 = 0.1325): 1029.34 ± 0.25 kg/m3
- mass density ([1]; 278.15 K, x1 = 0.159): 1033.54 ± 0.24 kg/m3
- mass density ([1]; 278.15 K, x1 = 0.1991): 1038.57 ± 0.23 kg/m3
- mass density ([1]; 278.15 K, x1 = 0.2503): 1043.75 ± 0.23 kg/m3
- mass density ([1]; 288.15 K, x1 = 0.0045): 1000.13 ± 0.09 kg/m3
- mass density ([1]; 288.15 K, x1 = 0.00696): 1000.68 ± 0.09 kg/m3
- mass density ([1]; 288.15 K, x1 = 0.01255): 1001.93 ± 0.09 kg/m3
- mass density ([1]; 288.15 K, x1 = 0.0221): 1004.08 ± 0.09 kg/m3
- mass density ([1]; 288.15 K, x1 = 0.03704): 1007.37 ± 0.09 kg/m3
- mass density ([1]; 288.15 K, x1 = 0.04992): 1010.12 ± 0.09 kg/m3
- mass density ([1]; 288.15 K, x1 = 0.0607): 1012.3 ± 0.12 kg/m3
- mass density ([1]; 288.15 K, x1 = 0.07958): 1015.92 ± 0.12 kg/m3
- mass density ([1]; 288.15 K, x1 = 0.09463): 1018.65 ± 0.12 kg/m3
- mass density ([1]; 288.15 K, x1 = 0.1128): 1021.71 ± 0.25 kg/m3
- mass density ([1]; 288.15 K, x1 = 0.1325): 1024.81 ± 0.24 kg/m3
- mass density ([1]; 288.15 K, x1 = 0.159): 1028.5 ± 0.23 kg/m3
- mass density ([1]; 288.15 K, x1 = 0.1991): 1032.99 ± 0.23 kg/m3
- mass density ([1]; 288.15 K, x1 = 0.2503): 1037.61 ± 0.22 kg/m3
- mass density ([1]; 288.15 K, x1 = 0.3039): 1041.06 ± 0.22 kg/m3
- mass density ([1]; 288.15 K, x1 = 0.3456): 1043.19 ± 0.23 kg/m3
- mass density ([1]; 298.15 K, x1 = 0.0045): 997.95 ± 0.09 kg/m3
- mass density ([1]; 298.15 K, x1 = 0.00696): 998.45 ± 0.09 kg/m3
- mass density ([1]; 298.15 K, x1 = 0.01255): 999.55 ± 0.09 kg/m3
- mass density ([1]; 298.15 K, x1 = 0.0221): 1001.45 ± 0.09 kg/m3
- mass density ([1]; 298.15 K, x1 = 0.03704): 1004.39 ± 0.09 kg/m3
- mass density ([1]; 298.15 K, x1 = 0.04992): 1006.82 ± 0.09 kg/m3
- mass density ([1]; 298.15 K, x1 = 0.0607): 1008.75 ± 0.12 kg/m3
- mass density ([1]; 298.15 K, x1 = 0.07958): 1011.95 ± 0.12 kg/m3
- mass density ([1]; 298.15 K, x1 = 0.09463): 1014.35 ± 0.12 kg/m3
- mass density ([1]; 298.15 K, x1 = 0.1128): 1017.06 ± 0.24 kg/m3
- mass density ([1]; 298.15 K, x1 = 0.1325): 1019.79 ± 0.23 kg/m3
- mass density ([1]; 298.15 K, x1 = 0.159): 1023.07 ± 0.23 kg/m3
- mass density ([1]; 298.15 K, x1 = 0.1991): 1027.09 ± 0.22 kg/m3
- mass density ([1]; 298.15 K, x1 = 0.2503): 1031.18 ± 0.22 kg/m3
- mass density ([1]; 298.15 K, x1 = 0.3039): 1034.29 ± 0.22 kg/m3
- mass density ([1]; 298.15 K, x1 = 0.3456): 1036.18 ± 0.22 kg/m3
- mass density ([1]; 298.15 K, x1 = 0.3875): 1037.52 ± 0.23 kg/m3
- mass density ([1]; 308.15 K, x1 = 0.0045): 994.84 ± 0.09 kg/m3
- mass density ([1]; 308.15 K, x1 = 0.00696): 995.28 ± 0.09 kg/m3
- mass density ([1]; 308.15 K, x1 = 0.01255): 996.27 ± 0.09 kg/m3
- mass density ([1]; 308.15 K, x1 = 0.0221): 997.97 ± 0.09 kg/m3
- mass density ([1]; 308.15 K, x1 = 0.03704): 1000.6 ± 0.09 kg/m3
- mass density ([1]; 308.15 K, x1 = 0.04992): 1002.79 ± 0.09 kg/m3
- mass density ([1]; 308.15 K, x1 = 0.0607): 1004.54 ± 0.12 kg/m3
- mass density ([1]; 308.15 K, x1 = 0.07958): 1007.37 ± 0.12 kg/m3
- mass density ([1]; 308.15 K, x1 = 0.09463): 1009.49 ± 0.12 kg/m3
- mass density ([1]; 308.15 K, x1 = 0.1128): 1011.89 ± 0.23 kg/m3
- mass density ([1]; 308.15 K, x1 = 0.1325): 1014.32 ± 0.23 kg/m3
- mass density ([1]; 308.15 K, x1 = 0.159): 1017.25 ± 0.22 kg/m3
- mass density ([1]; 308.15 K, x1 = 0.1991): 1020.83 ± 0.22 kg/m3
- mass density ([1]; 308.15 K, x1 = 0.2503): 1024.52 ± 0.22 kg/m3
- mass density ([1]; 308.15 K, x1 = 0.3039): 1027.28 ± 0.22 kg/m3
- mass density ([1]; 308.15 K, x1 = 0.3456): 1028.97 ± 0.22 kg/m3
- mass density ([1]; 308.15 K, x1 = 0.3875): 1030.2 ± 0.22 kg/m3
- mass density ([1]; 323.15 K, x1 = 0.0045): 988.72 ± 0.09 kg/m3
- mass density ([1]; 323.15 K, x1 = 0.00696): 989.09 ± 0.09 kg/m3
- mass density ([1]; 323.15 K, x1 = 0.01255): 989.94 ± 0.09 kg/m3
- mass density ([1]; 323.15 K, x1 = 0.0221): 991.4 ± 0.09 kg/m3
- mass density ([1]; 323.15 K, x1 = 0.03704): 993.65 ± 0.09 kg/m3
- mass density ([1]; 323.15 K, x1 = 0.04992): 995.48 ± 0.09 kg/m3
- mass density ([1]; 323.15 K, x1 = 0.0607): 996.95 ± 0.12 kg/m3
- mass density ([1]; 323.15 K, x1 = 0.07958): 999.36 ± 0.12 kg/m3
- mass density ([1]; 323.15 K, x1 = 0.09463): 1001.16 ± 0.12 kg/m3
- mass density ([1]; 323.15 K, x1 = 0.1128): 1003.22 ± 0.23 kg/m3
- mass density ([1]; 323.15 K, x1 = 0.1325): 1005.31 ± 0.22 kg/m3
- mass density ([1]; 323.15 K, x1 = 0.159): 1007.78 ± 0.22 kg/m3
- mass density ([1]; 323.15 K, x1 = 0.1991): 1010.87 ± 0.22 kg/m3
- mass density ([1]; 323.15 K, x1 = 0.2503): 1013.96 ± 0.22 kg/m3
- mass density ([1]; 323.15 K, x1 = 0.3039): 1016.34 ± 0.22 kg/m3
- mass density ([1]; 323.15 K, x1 = 0.3456): 1017.76 ± 0.22 kg/m3
- mass density ([1]; 323.15 K, x1 = 0.3875): 1018.81 ± 0.22 kg/m3

SMILES: O [water]
- mass density ([2]; 278.15 K): 999.96 ± 0.09 kg/m3
- mass density ([2]; 323.15 K): 988.03 ± 0.09 kg/m3

SMILES: O [water] + CC(N)=O
- mass density ([1]; 278.15 K, x2 = 0): 999.96 ± 0.09 kg/m3
- mass density ([1]; 323.15 K, x2 = 0): 988.03 ± 0.09 kg/m3
